Experimental data as given in ChEMBL document CHEMBL5357082, “Identification and Optimization of Small Molecule Pyrazolopyrimidine TLR7 Agonists for Applications in Immuno-oncology” (ACS Med Chem Lett, 2024).

What was measured:
[1] = Metabolic stability in human liver microsomes assessed as compound remaining at 0.5 uM incubated for 10 mins in presence of NADPH by UV absorbance based assay; assay type: ADME, Microsome; settings: read-out: Stability
[2] = Metabolic stability in mouse liver microsomes assessed as compound remaining at 0.5 uM incubated for 10 mins in presence of NADPH by UV absorbance based assay; assay type: ADME, Microsome; settings: read-out: Stability
Toll-like receptor 8 = molecular target: T1, Toll-like receptor 8 (Homo sapiens, UniProt Q9NR97); experiment: Agonist activity at human TLR8
T1 sequence (Q9NR97 whole entry): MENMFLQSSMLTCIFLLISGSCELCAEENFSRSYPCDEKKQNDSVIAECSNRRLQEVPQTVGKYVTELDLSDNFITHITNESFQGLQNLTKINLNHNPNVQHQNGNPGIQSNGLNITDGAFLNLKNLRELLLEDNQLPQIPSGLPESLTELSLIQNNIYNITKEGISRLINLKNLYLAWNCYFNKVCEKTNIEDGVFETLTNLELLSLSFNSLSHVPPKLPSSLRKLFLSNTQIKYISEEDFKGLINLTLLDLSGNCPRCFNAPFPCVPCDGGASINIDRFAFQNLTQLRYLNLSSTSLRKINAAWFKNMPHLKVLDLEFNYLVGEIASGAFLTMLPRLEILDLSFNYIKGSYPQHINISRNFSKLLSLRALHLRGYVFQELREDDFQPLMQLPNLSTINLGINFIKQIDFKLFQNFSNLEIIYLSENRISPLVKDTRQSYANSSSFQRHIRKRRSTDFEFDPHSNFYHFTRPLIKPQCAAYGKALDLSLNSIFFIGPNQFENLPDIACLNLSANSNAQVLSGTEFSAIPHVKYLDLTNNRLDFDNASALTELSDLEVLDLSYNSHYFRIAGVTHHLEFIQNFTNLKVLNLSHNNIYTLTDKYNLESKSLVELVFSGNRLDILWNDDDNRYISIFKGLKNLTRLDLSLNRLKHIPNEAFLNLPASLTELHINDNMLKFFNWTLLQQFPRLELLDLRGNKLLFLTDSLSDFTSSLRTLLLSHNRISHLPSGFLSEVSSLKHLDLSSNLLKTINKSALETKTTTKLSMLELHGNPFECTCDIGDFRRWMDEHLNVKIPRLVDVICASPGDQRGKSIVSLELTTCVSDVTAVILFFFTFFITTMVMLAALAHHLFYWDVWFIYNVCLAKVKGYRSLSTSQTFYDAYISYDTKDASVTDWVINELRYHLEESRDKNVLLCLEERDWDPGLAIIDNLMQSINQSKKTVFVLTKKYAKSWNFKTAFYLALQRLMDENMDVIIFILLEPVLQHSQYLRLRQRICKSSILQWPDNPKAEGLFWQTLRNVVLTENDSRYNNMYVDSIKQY

[3] = Drug concentration in nontumor bearing Balb/C mouse at 0.5 mg/kg measured after 5 mins; assay type: ADME, organism-based; settings: in vivo, read-out: Drug uptake
[4] = AUClast in nontumor bearing Balb/C mouse at 0.5 mg/kg; assay type: ADME, organism-based; parameters: dose 0.5 mg/kg; settings: in vivo
[5] = Half life in nontumor bearing Balb/C mouse at 0.5 mg/kg; assay type: ADME, organism-based; settings: in vivo
[6] = Clearance in nontumor bearing Balb/C mouse at 0.5 mg/kg; assay type: ADME, organism-based; settings: in vivo

remaining at 10 min, 0.5 µM [1]: 75%
remaining at 10 min, 0.5 µM [2]: 81%
EC50 (Toll-like receptor 8): > 5 µM
concentration at 5 min [3]: 66 nM
AUC(0-t) [4]: 0.111 µM·h
half-life [5]: 5.6 h
clearance [6]: 149 mL/min/kg
Structure (SMILES): CCC[C@@H](CCO)Nc1nc(N)nc2cnn(Cc3ccc(CNC4CCOCC4)cc3OC)c12
